Experimental data as given in US5798362A, “Quinazolinyl-amino derivatives having α-antagonist activity” (Recordati S.A. Chemical and Pharmaceutical Company, priority 1994, dated 1998).
Where a name gives a salt, the structure may show the parent alone. Read-outs that look alike come from different tables or passages of the source.

How the values were obtained:
[1] = target: α1-receptors ([3H]prazosin); test: [3H]Prazosin binding (α1-receptors), rat cerebral cortices; conditions: rat cerebral cortex, 0.35 nM [3H]prazosin, 25° C., 30 min; read-out: [3H] prazosine IC50
Description: Rat cerebral cortices were homogenized in 50 volumes of original wet weight of ice-cold 50 mM Tris-HCl buffer pH 7.4. The homogenates were centrifuged at 48,000 × g for 10 minutes, and the pellets were resuspended in the same volume of ice-cold buffer, centrifuged and resuspended two more times. […] The incubations were terminated by rapid filtration through Whatman GF/B, filters using a Brandel cell harvester and the filters were washed with 3×3 ml of ice-cold buffer. The radioactivity retained on the filters was determined by liquid scintillation counting. Data analysis The inhibition of specific binding of the radioligands by the tested drugs was analyzed to estimate the IC50 value by using the non-linear curve-fitting program Allfit [A. De Lean et al., Am. J. Physiol.

[2] = in vivo; conditions: mouse, mice, mortality 7 days after administration
Description: 20-30 g b.w., were obtained from Charles River, Italy. Animals were housed with free access to food and water and maintained on forced light-dark cycle at 22°-24° C. until the day of experiments.
The acute toxicity of synthesized compounds was evaluated in female Albino Swiss mice after intraperitoneal and oral administration. Four logarithmic scaled doses of the compounds were dissolved or suspended in 0.5% Methocel and administered in a volume of 10 ml/kg to groups of 4 mice/dose. Mortality was recorded 7 days after the administration.

[3] = ip, intraperitoneal, read-out: DL50 i.p.

With `COc1cc2nc(N3CCN(Cc4ccccc4)CC3)nc(N)c2cc1OC` [Example 1, 4-Amino-6,7-dimethoxy-2-(4-benzyl-1-piperazinyl)-guinazoline bihydrochloride hemihydrate] the IC50 [1] was 32 nM, the LD50 at 168 h [2, 3] was 76 mg/kg and the LD50 at 168 h ([2]; oral, read-out: DL50 p.o.) was 301 mg/kg.

`COc1cc2nc(N3CCN(C(c4ccccc4)c4ccccc4)CC3)nc(N)c2cc1OC` [Example 2, 4-Amino-6,7-dimethoxy-2-(4-diphenylmethyl-1-piperazinyl)-guinazoline bihydrochloride emihydrate] gave an IC50 [1] of 40 nM.

For `COc1cc2nc(N3CCN(C(=O)C(c4ccccc4)c4ccccc4)CC3)nc(N)c2cc1OC` [Example 3, 4-Amino-6,7-dimethoxy-2-[4-(2,2-diphenylacetyl)-1-piperazinyl]-quinazoline hydrochloride . 0.75 H2 O], the IC50 [1] was 5 nM, the LD50 at 168 h [2, 3] was 112 mg/kg and the LD50 at 168 h ([2]; oral, read-out: DL50 p.o.) was 868 mg/kg.

With `COc1cc2nc(N3CCN(C(=O)CC(c4ccccc4)c4ccccc4)CC3)nc(N)c2cc1OC` [Example 4, 4-Amino-6,7-dimethoxy-2-[4-(3,3-diphenylpropionyl)-1-piperazinyl]-guinazoline hydrochloride] the IC50 [1] was 3 nM, the LD50 at 168 h [2, 3] was 97 mg/kg and the LD50 at 168 h ([2]; oral, read-out: DL50 p.o.) was > 3000 mg/kg.

In the case of `COc1cc2nc(N3CCN(C(=O)CCNC(=O)OCc4ccccc4)CC3)nc(N)c2cc1OC` [Example 5, 4-Amino-6,7-dimethoxy-2-{4-[(3-benzyloxycarbonylamino)propionyl]-1-piperazinyl}-quinazoline hydrochloride emihydrate], the IC50 [1] is reported as 283 nM, the LD50 at 168 h [2, 3] is reported as 300 mg/kg and the LD50 at 168 h ([2]; oral, read-out: DL50 p.o.) is reported as > 3000 mg/kg.

With `COc1cc2nc(N3CCN(C(=O)CCCNC(=O)OCc4ccccc4)CC3)nc(N)c2cc1OC` [Example 6, 4-Amino-6,7-dimethoxy-2-{4-[(4-benzyloxycarbonylamino)butirryl]-1-piperazinyl}-quinazoline hydrochloride . 1.5 H2 O] the IC50 [1] was 29 nM, the LD50 at 168 h [2, 3] was > 1000 mg/kg and the LD50 at 168 h ([2]; oral, read-out: DL50 p.o.) was > 3000 mg/kg.

For `COc1cc2nc(N3CCN(C(=O)CCN)CC3)nc(N)c2cc1OC` [Example 7, 4-Amino-6,7-dimethoxy-2-[4-(3-aminopropionyl)-1-piperazinyl]-guinazoline dihydrobromide . 1.75 H2 O], the IC50 [1] was 48 nM, the LD50 at 168 h [2, 3] was 187 mg/kg and the LD50 at 168 h ([2]; oral, read-out: DL50 p.o.) was > 3000 mg/kg.

In the case of `COc1cc2nc(N3CCN(C(=O)CCCN)CC3)nc(N)c2cc1OC` [Example 8, 4-Amino-6,7-dimethoxy-2-[4-(4-aminobutirryl)-1-piperazinyl]-guinazoline dihydrobromide . 0.25 H2 O], the IC50 [1] is reported as 47 nM, the LD50 at 168 h [2, 3] is reported as 219 mg/kg and the LD50 at 168 h ([2]; oral, read-out: DL50 p.o.) is reported as > 3000 mg/kg.

In the case of `COc1cc2nc(N3CCN(C(=O)CCCNS(C)(=O)=O)CC3)nc(N)c2cc1OC` [Example 9, 4-Amino-6,7-dimethoxy-2-{4-[(4-methylsulfonylamino)butirry]-1-piperazinyl}-quinazoline hydrochloride], the IC50 [1] is reported as 86 nM and the LD50 at 168 h [2, 3] is reported as > 500 mg/kg.

`COc1cc2nc(N3CCN(C(=O)NCCN(C)C)CC3)nc(N)c2cc1OC.Cl.Cl.O.O.O.O` [Example 10, 4-Amino-6,7-dimethoxy-2-{4-[(2-dimethylaminoethyl)amino-carbonyl]-1-piperazinyl}-quinazoline dihydrochloride tetrahydrate] gave an IC50 [1] of 55 nM, an LD50 at 168 h [2, 3] of 23 mg/kg and an LD50 at 168 h ([2]; oral, read-out: DL50 p.o.) of 1350 mg/kg.

For `COc1cc2nc(N3CCN(C(=O)CNC(=O)OCc4ccccc4)CC3)nc(N)c2cc1OC.Cl` [Example 11, 4-Amino-6,7-dimethoxy-2-{4-[2-(benzyloxycarbonylamino)-acetyl]-1-piperazinyl}-quinazoline hydrochloride], the IC50 [1] was 61 nM, the LD50 at 168 h [2, 3] was > 1000 mg/kg and the LD50 at 168 h ([2]; oral, read-out: DL50 p.o.) was > 3000 mg/kg.

For `COc1cc2nc(N3CCN(C(=O)CNC(=O)CNC(=O)OCc4ccccc4)CC3)nc(N)c2cc1OC` [Example 12, 4-Amino-6,7-dimethoxy-2-{4-[2-[2-(benzyloxycarbonylamino)-acetylamino]acetyl]-1-piperazinyl}-quinazoline hydrochloride hemihydrate], the IC50 [1] was 29 nM, the LD50 at 168 h [2, 3] was 1130 mg/kg and the LD50 at 168 h ([2]; oral, read-out: DL50 p.o.) was > 2000 mg/kg.

With `COc1cc2nc(N3CCN(C(=O)CC(O)c4ccccc4)CC3)nc(N)c2cc1OC` (stereo not drawn) [Example 14, 4-Amino-6,7-dimethoxy-2-[4-(3-hydroxy-3-phenylpropionyl)-1-piperazinyl]-quinazoline] the IC50 [1] was 19 nM, the LD50 at 168 h [2, 3] was > 1000 mg/kg and the LD50 at 168 h ([2]; oral, read-out: DL50 p.o.) was > 3000 mg/kg.

With `COc1cc2nc(N3CCN(C(=O)CCC(=O)c4ccccc4)CC3)nc(N)c2cc1OC.Cl.O` [Example 15, 4-Amino-6,7-dimethoxy-2-{4-[(3-benzoyl)propionyl]-1-piperazinyl}-quinazoline hydrochloride hydrate] the IC50 [1] was 15 nM, the LD50 at 168 h [2, 3] was > 1000 mg/kg and the LD50 at 168 h ([2]; oral, read-out: DL50 p.o.) was > 3000 mg/kg.

With `COc1cc2nc(N3CCN(C(=O)CCC(O)c4ccccc4)CC3)nc(N)c2cc1OC` (stereo not drawn) [Example 16, 4-Amino-6,7-dimethoxy-2-[4-(4-phenyl-4-hydroxybutirryl)-1-piperazinyl]-quinazoline maleate (1:1)] the IC50 [1] was 17 nM, the LD50 at 168 h [2, 3] was 253 mg/kg and the LD50 at 168 h ([2]; oral, read-out: DL50 p.o.) was > 3000 mg/kg.

Compound `COc1cc2nc(N3CCN(C(=O)CC(N)=O)CC3)nc(N)c2cc1OC` [Example 17, 4-Amino-6,7-dimethoxy-2-[4-(3-oxo-3-aminopropionyl)-1-piperazinyl]-quinazoline hydrochloride hydrate] has an IC50 [1] of 105 nM.

With `CCOC(=O)CC(=O)N1CCN(c2nc(N)c3cc(OC)c(OC)cc3n2)CC1.Cl` [Example 18, 4-Amino-6,7-dimethoxy-2-[4-(2-ethoxycarbonylacetyl)-1-piperazinyl]-quinazoline hydrochloride] the IC50 [1] was 54 nM, the LD50 at 168 h [2, 3] was > 1000 mg/kg and the LD50 at 168 h ([2]; oral, read-out: DL50 p.o.) was > 3000 mg/kg.

In the case of `CCCCNC(=O)CC(=O)N1CCN(c2nc(N)c3cc(OC)c(OC)cc3n2)CC1.Cl` [Example 19, 4-Amino-6,7-dimethoxy-2-[4-(3-n-butylamino-3-oxopropionyl)-1-piperazinyl]-quinazoline hydrochloride], the IC50 [1] is reported as 96 nM, the LD50 at 168 h [2, 3] is reported as 459 mg/kg and the LD50 at 168 h ([2]; oral, read-out: DL50 p.o.) is reported as > 2000 mg/kg.

`COc1cc2nc(N3CCN(C(=O)CC(=O)Nc4ccccc4)CC3)nc(N)c2cc1OC` [Example 20, 4-Amino-6,7-dimethoxy-2-[4-(phenylaminocarbonylacetyl)-1-piperazinyl]-quinazoline hydrochloride hemihydrate] showed an IC50 [1] of 67 nM.

With `COc1cc2nc(N3CCN(C(=O)C(C)(C)Oc4ccccc4)CC3)nc(N)c2cc1OC` [Example 21, 4-Amino-6,7-dimethoxy-2-[4-(2-phenoxy-2-methylpropionyl)-1-piperazinyl]-quinazoline hydrochloride . 1.5 H2 O] the IC50 [1] was 99 nM, the LD50 at 168 h [2, 3] was 206 mg/kg and the LD50 at 168 h ([2]; oral, read-out: DL50 p.o.) was > 1700 mg/kg.

In the case of `COc1cc2nc(N3CCN(C(=O)C(C)(C)Oc4ccccc4OC)CC3)nc(N)c2cc1OC.Cl` [Example 22, 4-Amino-6,7-dimethoxy-2-{4-[2-(2-methoxyphenoxy)-2-methylpropionyl]-1-piperazinyl}-quinazoline hydrochloride], the IC50 [1] is reported as 49 nM, the LD50 at 168 h [2, 3] is reported as 435 mg/kg and the LD50 at 168 h ([2]; oral, read-out: DL50 p.o.) is reported as > 3000 mg/kg.

In the case of `COc1cc2nc(N3CCN(C(=O)COc4ccccc4OC)CC3)nc(N)c2cc1OC.Cl` [Example 23, 4-Amino-6,7-dimethoxy-2-[4-(2-methoxyphenoxyacetyl)-1-piperazinyl]-quinazoline hydrochloride], the LD50 at 168 h [2, 3] is reported as 337 mg/kg and the LD50 at 168 h ([2]; oral, read-out: DL50 p.o.) is reported as > 2000 mg/kg.

For `COc1cc2nc(N3CCN(C(=O)COc4cc(C)ccc4C(C)C)CC3)nc(N)c2cc1OC` [Example 25, 4-Amino-6,7-dimethoxy-2-{4-[(2-isopropyl-5-methylphenoxy)acetyl]-1-piperazinyl}-quinazoline hydrochloride . 0.25 H2 O], the IC50 [1] was 157 nM, the LD50 at 168 h [2, 3] was 346 mg/kg and the LD50 at 168 h ([2]; oral, read-out: DL50 p.o.) was > 3000 mg/kg.

`COc1cc2nc(N3CCN(C(=O)C(C)Oc4c(OC)cccc4C(C)C)CC3)nc(N)c2cc1OC.Cl` (stereo not drawn) [Example 26, 4-Amino-6,7-dimethoxy-2-{4-[2-(2-methoxy-6-isopropylphenoxy)propionyl]-1-piperazinyl}-quinazoline hydrochloride] showed an IC50 [1] of 123 nM, an LD50 at 168 h [2, 3] of 115 mg/kg and an LD50 at 168 h ([2]; oral, read-out: DL50 p.o.) of 1960 mg/kg.

Work on `COc1cc2nc(N3CCN(C(=O)COc4c(OC)cccc4OC)CC3)nc(N)c2cc1OC` [Example 27, 4-Amino-6,7-dimethoxy-2-[4-(2,6-dimethoxyphenoxy)acetyl-1-piperazinyl]-quinazoline hydrochloride . 0.25 H2 O] yielded an IC50 [1] of 6 nM.

`COc1cc2nc(N(C)Cc3ccccc3)nc(N)c2cc1OC` [Example 28, 4-Amino-6,7-dimethoxy-2-(N-benzyl-N-methylamino)-guinazoline hydrochloride] showed an IC50 [1] of 70 nM, an LD50 at 168 h [2, 3] of 89 mg/kg and an LD50 at 168 h ([2]; oral, read-out: DL50 p.o.) of 293 mg/kg.

With `COc1cc2nc(N(C)CCC(c3ccccc3)c3ccccc3)nc(N)c2cc1OC` [Example 29, 4-Amino-6,7-dimethoxy-2-(N-methyl-3,3-diphenylpropylamino)-guinazoline hydrochloride] the IC50 [1] was 85 nM, the LD50 at 168 h [2, 3] was 163 mg/kg and the LD50 at 168 h ([2]; oral, read-out: DL50 p.o.) was > 2000 mg/kg.

Work on `COc1cc2nc(N3CCc4c(ccc5ccccc45)C3)nc(N)c2cc1OC` [Example 30, 4-Amino-6,7-dimethoxy-2-(1,2,3,4-tetrahydrobenzo[f]isoquinolin-2-yl)-quinazoline . 0.25 ethanole] yielded an IC50 [1] of 5 nM.
